{"source": "patent US20130274235A1", "about": "“TREATMENT OF MOTOR NEURON DISEASE” (THE GENERAL HOSPITAL CORPORATION, priority 2010, published 2013)", "key": {"IGF-II mRNA": {"test_system": "IGF-II mRNA", "assay": "IGF-II expression assay, qPCR detection, in primary spinal cord cultures", "type": "cell-based, mice", "procedure": "Quantitative PCR utilizing SYBR green I (Molecular Probes, Eugene, Oreg.) or specific Taqman probes was used to confirm differential gene expression. RNA extracted from 100-200 LCMed motor neurons were reverse transcribed using Superscript III (Invitrogen). 2 μl of diluted cDNA was amplified (DNA Engine Opticon real-time PCR machine, Bio-Rad), in […] reactions containing 900 nM primer and 250 nM probe in Taqman Universal Master Mix (Applied Biosystems). Reactions were run in duplicate and each gene analyzed in at least three different animals. Reaction parameters were as follows: 50° C. for 2 min, 95° C. for 10 min, and 40 cycles of 95° C. for 15 s and 60° C. for 1 min. Controls lacking template and/or Superscript were included. The absolute copy number for each gene was quantified using a standard curve from human GAPDH plasmid and amplified products were normalized against rat GAPDH expression. Primers and probes (Integrated DNA technologies) were as follows: rat GAPDH: Forward primer: […]\nTwo libraries of FDA-approved drugs (NINDS and Harvard LDDN) were screened for their ability to up-regulate IGF-II expression. Candidate compounds were screened in an IGF-II expression assay using a qPCR detection methodology in primary spinal cord cultures or using a luciferase reporter assay. In the initial screening, therapeutic candidates were identified as those that increased IGF-II expression by at least 2-fold. […]"}, "[1]": {"test_system": "motor neurons in primary spinal cord cultures", "assay": "Low-level progressive glutamate excitotoxicity in primary spinal cord cultures", "type": "cell-based, mice", "conditions": "drug pretreatment, glutamate/PDC treatments 48 hours apart, FIG. 8", "procedure": "Primary spinal cord cultures from E12 pregnant mice were pre-treated for 72 hours with 1 μM, 2.5 μM, 5 μM, or 10 μM of a selected drug according to prior optimized dosing regimen. Drugs tested were identified during screening of qPCR. Subsequently, experimental cultures were grown in the presence of 0, 1.0 μM, 2.5 μM, or 10 μM drug for 24 hours prior to exposure to two glutamate (20 μM)/PDC (1 μM) or glutamate (50 μM)/PDC (10 μM) treatments 48 hours apart. Control samples (no glutamate/PDC treatment) were cultured for 24 hours in the presence of 10 μM drug administered 3 times to determine toxicity of treatment. All cultures were then fixed and stained with ChAT, Hoechst stain of the nuclei, and Islet1/2 antibody labels for the motorneuron columns. Results were analyzed using an In Cell Analyzer (GE Healthcare). Results were presented as percent of vehicle (DMSO) treated control cells."}, "IGF-II protein": {"test_system": "IGF-II protein", "assay": "IGF-II protein expression in primary spinal cord cultures, quantitated by ELISA", "type": "cell-based, mice", "description": "Further results of the library screening identified the following therapeutic agents as having a significant inducing effect on IGF-II expression in primary spinal cord cultures and are useful for treating motor neuron disease. Protein expression was quantitated by ELISA."}, "IGF-II P4 promoter [2]": {"test_system": "IGF-II P4 promoter", "assay": "Luciferase reporter assay, P4 IGF-II promoter cell line (SK-N-FI cells)", "type": "cell-based", "conditions": "FIG. 9, HCl", "procedure": "pGL4.17[luc/Neo] reporter constructs were transfected to contain the P4 IGF-II promoter using the Blue Heron Bio GeneMaker. After transfection of reporter constructs into SK-N-FI cells+IGF-II using G418 selection pressure for generation of stable cell-line, clonal expansion, IGF-II up-regulating drugs such as glucocorticoids were added, and luminescence was measured. The cell lines were optimized for luciferase intensity, background, and responsiveness. The transfected cells were then used to screen the drug libraries described above\nThe P4 promoter cell line was cultured as described above. Eight drugs that were positive in the small library screen were tested as described above, and luciferase luminescence was measured. Of the eight tested drugs, four acted on the P4 IGF-II promoter. The best-performing non-glucocorticoid candidate that was tested was Vardenafil HCl. […] Vardenafil HCl is a phosphodiesterase type 5 (PDE5) inhibitor with a structure as shown in FIG. 11 and is known to increase cellular cGMP. Vardenafil has been previously FDA approved for treatment of erectile dysfunction and is also clinically used for treating pulmonary hypertension, and is in preclinical studies as a treatment of cystic fibrosis."}, "IGF-II P4 promoter [3]": {"test_system": "IGF-II P4 promoter", "conditions": "cited from earlier work"}, "[4]": {"test_system": "spinal motor neurons in primary culture", "assay": "Neuroprotection against glutamate-induced toxicity in primary spinal cord cultures", "type": "cell-based, rat", "conditions": "10-100 ng/ml, 2-4 h pretreatment; 20 μM glutamate + 100 μM PDC", "procedure": "Time-pregnant Sprague Dawley wild-type rats were anesthetized, decapitated and E15.5 embryos collected, decapitated and spinal cords isolated in Hanks balanced salt solution (HBSS, Invitrogen). Dissections of spinal cords were done carefully to avoid the inclusion of somites or other external tissues. Cells were dissociated by gentle trituration and incubation with papain (Worthington Biochemical Corporation). Cells were cultured for 6 days in Neurobasal media (Invitrogen) containing 10% fetal bovine serum (FBS, Fisher scientific), 1×B27 supplement (Invitrogen), 500 μM glutamine (Invitrogen), […] mercaptoethanol (Invitrogen), Penicillin-Streptomycin (Invitrogen) or in DMEM/F12 (Invitrogen) containing 5% FBS, 1×N2 supplement A (Stem Cell Technologies), glucose (0.36%, Sigma), bovine serum albumin (0.25%, Invitrogen), Penicillin-Streptomycin (Invitrogen). Either culture media could maintain spinal cord cultures containing motor neurons. […]\nFor immunofluorescent staining, coverslips/sections were rinsed with phosphate buffered saline and incubated with blocking buffer (see above) for 1 h. […] The effect of glutamate, IGF-II and/or guanine deaminase on motor neuron survival was carefully evaluated, as was the co-localization of motor neuron markers."}}, "note": "“And” between values parts separate entries of the source, which are not always exact repeats. Equal values may be shown once. “Also recorded” adds a separate entry of the source. Where a name gives a salt, the structure may show the parent alone. Read-outs that look alike come from different tables or passages of the source.", "data": [{"molecule": "CCCc1nc(C)c2c(=O)[nH]c(-c3cc(S(=O)(=O)N4CCN(CC)CC4)ccc3OCC)nn12", "note": "[Vardenafil HCl]", "values": [{"measurement": "Fold Increase in IGF-II mRNA Expression", "setting": "IGF-II mRNA; HCl", "value": "6.5 fold and 6.5 ± 0.2 fold"}, {"measurement": "protection of motor neurons against glutamate/PDC excitotoxic insult", "setting": "[1]; HCl", "value": "provided a level of protection; also recorded: rescues primary motor neurons from low-level progressive glutamate toxicity"}, {"measurement": "Fold Increase in IGF-II Protein Expression", "setting": "IGF-II protein", "value": 1.6, "unit": "fold"}, {"measurement": "IGF-II Protein Expression (pg/ml in media)", "setting": "IGF-II protein; in media", "value": "(245 ± 27) pg/ml"}, {"measurement": "luciferase luminescence, activation of P4 IGF-II promoter", "setting": "IGF-II P4 promoter [2]", "value": "roughly equal to those of Hydrocortisone at three concentrations; also recorded: activation, as shown in FIG. 9, at a level similar to the known P4 activator hydrocortisone"}]}, {"molecule": "C[C@]12CCC(=O)C=C1CC[C@@H]1[C@@H]2[C@@H](O)C[C@@]2(C)[C@H]1CC[C@]2(O)C(=O)CO", "note": "[hydrocortisone]", "values": [{"measurement": "P4 IGF-II promoter activation (known)", "setting": "IGF-II P4 promoter [3]", "value": "known P4 activator"}]}, {"molecule": "N=C(N)N/N=C/c1c(Cl)cccc1Cl", "note": "[Guanabenz acetate]", "values": [{"measurement": "Fold Increase in IGF-II mRNA Expression", "setting": "IGF-II mRNA", "value": 3.8, "unit": "fold"}, {"measurement": "induction of IGF-II expression (in words)", "setting": "IGF-II mRNA; antihypertensive agents, FIGS. 5 and 6", "value": "most active"}, {"measurement": "protection of motor neurons against glutamate/PDC excitotoxic insult", "setting": "[1]", "value": "provided a level of protection"}]}, {"molecule": "IGF-II: recombinant IGF-II (R&D Systems), added exogenously to primary spinal cord cultures", "values": [{"measurement": "protection of motor neurons from glutamate-induced toxicity", "setting": "[4]", "value": "blocked glutamate-induced motor neuron loss completely; also recorded: protected motor neurons against the toxicity; also recorded: protected motor neurons from glutamate-induced toxicity"}]}]}
